Assay results reported in patent US20220056043A1, “NITROGEN-CONTAINING FUSED CYCLIC COMPOUND, PREPARATION METHOD THEREFOR AND USE THEREOF” (SICHUAN KELUN-BIOTECH BIOPHARMACEUTICAL CO., LTD., priority 2019, published 2022).
Where two headings read alike, the source gives them in different places.

Tests used:
THP1-defNLRP3 cells = test: Agonistic effect on the expression of IL-1β in NLRP3 deficient THP1 cells (THP1-defNLRP3) after PMA-induced differentiation (HTRF); format: cell-based, human; settings: IL-1β level, PMA-differentiated NLRP3 deficient THP1 cells, 6 hours, highest test concentration 30 μM, read-out: hNLRP3 EC50 (μM) (THP-1defNLRP3)
How it was run: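 PMA-differentiated (1 μM, 24 h) NLRP3-deficient THP1 macrophages, 1×10^5 cells/well in RPMI 1640 with 2% heat-inactivated FBS, treated with compound for 6 h at 37 °C. Supernatant IL-1β measured by HTRF. EC50 from four-parameter variable-slope fit.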

hTLR7 = molecular target: T1, hTLR7 (Homo sapiens, UniProt Q9NYK1); test: Agonistic effect on hTLR7, HEK-hTLR7-NF-κB-Luciferase reporter cells; format: cell-based; settings: 16 hours
T1 construct: host or cells: HEK-hTLR7-NF-κB-Luciferase cells
T1 sequence (Q9NYK1 27-1049): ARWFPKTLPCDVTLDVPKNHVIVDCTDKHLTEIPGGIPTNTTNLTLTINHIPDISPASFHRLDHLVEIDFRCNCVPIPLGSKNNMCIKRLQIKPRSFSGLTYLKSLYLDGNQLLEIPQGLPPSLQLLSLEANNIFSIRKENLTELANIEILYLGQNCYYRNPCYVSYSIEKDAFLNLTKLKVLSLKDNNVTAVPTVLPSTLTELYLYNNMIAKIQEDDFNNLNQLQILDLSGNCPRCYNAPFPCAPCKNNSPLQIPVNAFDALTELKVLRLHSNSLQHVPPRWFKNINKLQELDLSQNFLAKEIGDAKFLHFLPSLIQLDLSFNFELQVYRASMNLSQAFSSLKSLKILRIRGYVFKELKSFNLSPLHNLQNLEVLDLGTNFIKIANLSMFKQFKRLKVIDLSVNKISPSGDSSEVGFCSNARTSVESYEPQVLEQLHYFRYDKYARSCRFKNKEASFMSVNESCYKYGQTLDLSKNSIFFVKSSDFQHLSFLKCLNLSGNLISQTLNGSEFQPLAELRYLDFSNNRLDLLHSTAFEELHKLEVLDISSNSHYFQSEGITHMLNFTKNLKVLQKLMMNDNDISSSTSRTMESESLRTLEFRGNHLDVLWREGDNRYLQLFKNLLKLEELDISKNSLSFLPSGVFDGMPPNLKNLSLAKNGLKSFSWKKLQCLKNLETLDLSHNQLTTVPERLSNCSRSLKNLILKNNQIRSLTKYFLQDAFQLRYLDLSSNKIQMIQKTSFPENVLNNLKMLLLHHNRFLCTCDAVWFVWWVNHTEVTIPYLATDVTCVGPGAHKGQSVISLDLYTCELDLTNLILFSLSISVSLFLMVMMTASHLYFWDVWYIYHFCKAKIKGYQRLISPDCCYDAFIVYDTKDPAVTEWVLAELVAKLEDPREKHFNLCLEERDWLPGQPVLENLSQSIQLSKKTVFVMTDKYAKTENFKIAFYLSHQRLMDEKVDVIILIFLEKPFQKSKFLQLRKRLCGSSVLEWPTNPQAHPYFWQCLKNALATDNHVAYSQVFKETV
How it was run: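 HEK cells carrying human TLR7 and NF-κB-luciferase reporter, […] in DMEM with 10% FBS, exposed to compound for 16 h at 37 °C, 5% CO2; serves as specificity counterscreen to NLRP3 activity. Luminescence (RLU) after 5 min with luciferase reagent; EC50 by four-parameter variable-slope fit.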

| SMILES | EC50 (THP1-defNLRP3 cells; Homo sapiens, THP-1) [µM] | EC50 (hTLR7) [µM] | EC50 (THP1-defNLRP3 cells) [µM] |
| --- | --- | --- | --- |
| CCC(=O)N(CC)CCNc1cc(N)nc2cc(-c3ccn[nH]3)sc12 [Compound 145, N-(2-((5-amino-2-(1H-pyrazol-5-yl)thieno[3,2-b]pyridin-7-yl)amino)ethyl)-N-ethylpropionamide] | > 30 | > 100 | – |
| Nc1cc(N[C@H]2[C@@H]3CNC[C@@H]32)c2sc(-c3ccn[nH]3)cc2n1 [Compound 142, N^7-((1R,5S,6S)-3-azabicyclo[3.1.0]hex-6-yl)-2-(1H-pyrazol-5-yl)thieno[3,2-b]pyridin-5,7-diamine] | > 30 | > 100 | – |
| Nc1cc(NCC(CO)CO)c2sc(-c3ccn[nH]3)cc2n1 [Compound 136] | > 30 | > 100 | – |
| COC[C@@H](C)Nc1cc(N)nc2cc(-c3ccn[nH]3)sc12 [Compound 133, (R)—N^7-(1-methoxyprop-2-yl)-2-(1H-pyrazol-5-yl)thieno[3,2-b]pyridine-5,7-diamine] | > 30 | > 100 | – |
| Nc1cc(NC2CCC(F)(F)CC2)c2sc(-c3ccn[nH]3)cc2n1 [Compound 143, N^7-(4,4-difluorocyclohexyl)-2-(1H-pyrazol-5-yl)thieno[3,2-b]pyridin-5,7-diamine] | > 30 | > 100 | – |
| C[C@@H](O)CNc1cc(N)nc2cc(-c3ccn[nH]3)sc12 [Compound 29] | > 30 | > 100 | – |
| C[C@@H]1CN(c2cc(N)nc3cc(-c4ccn[nH]4)sc23)C[C@@H](C)O1 [Compound 148, 7-((2R,6R)-2,6-dimethylmorpholino)-2-(1H-pyrazol-5-yl)thieno[3,2-b]pyridine-5-amine] | > 30 | > 100 | – |
| CC(C)CNc1cc(N)nc2cc(-c3ccn[nH]3)sc12 [Compound 141, N^7-isobutyl-2-(1H-pyrazol-5-yl)thieno[3,2-b]pyridin-5,7-diamine] | > 30 | > 100 | – |
| CC[C@@H](CO)Nc1cc(N)nc2cc(-c3ccn[nH]3)sc12 [Compound 132, (S)-2-((5-amino-2-(1H-pyrazol-5-yl)thieno[3,2-b]pyridin-7-yl)amino)-1-butanol] | > 30 | > 100 | – |
| Cc1cccnc1CNc1cc(N)nc2cc(-c3ccn[nH]3)sc12 [Compound 134, N^7-((3-methylpyridin-2-yl)methyl)-2-(1H-pyrazol-5-yl)thieno[3,2-b]pyridine-5,7-diamine] | > 30 | > 100 | – |
| Nc1cc(NC(CCO)c2ccccc2)c2sc(-c3ccn[nH]3)cc2n1 (stereo not drawn) [Compound 123, 3-((5-amino-2-(1H-pyrazol-5-yl)thieno[3,2-b]pyridin-7-yl)amino)-3-phenyl-1-propanol] | > 30 | > 100 | – |
| Nc1cc(NCC2CCC2)c2sc(-c3ccn[nH]3)cc2n1 [Compound 126, N^7-(cyclobutylmethyl)-2-(1H-pyrazol-5-yl)thieno[3,2-b]pyridine-5,7-diamine] | > 30 | > 100 | – |
| Nc1cc(NCCN2CCCC2=O)c2sc(-c3ccn[nH]3)cc2n1 [Compound 135, 1-(2-((5-amino-2-(1H-pyrazol-5-yl)thieno[3,2-b]pyridin-7-yl)amino)ethyl)pyrrolidin-2-one] | > 30 | > 100 | – |
| Nc1cc(N[C@@H]2CC[C@@H](O)C2)c2sc(-c3ccn[nH]3)cc2n1 [Compound 30, (1R,3R)-3-((5-amino-2-(1H-pyrazol-5-yl)thieno[3,2-b]pyridin-7-yl)amino)cyclopentanol] | – | > 100 | > 30 |
| CCN(CCNc1cc(N)nc2cc(-c3ccn[nH]3)sc12)C(=O)C1CC1 [Compound 146, N-(2-((5-amino-2-(1H-pyrazol-5-yl)thieno[3,2-b]pyridin-7-yl)amino)ethyl)-N-ethylcyclopropyl formamide] | > 30 | > 100 | – |
| C[C@H]1CC[C@H](Nc2cc(N)nc3cc(-c4ccn[nH]4)sc23)CC1 [Compound 128, N^7-((1R,4R)-4-methylcyclohexyl)-2-(1H-pyrazol-5-yl)thieno[3,2-b]pyridine-5,7-diamine] | > 30 | > 100 | – |
| CCN(CCNc1cc(N)nc2cc(-c3ccn[nH]3)sc12)C(=O)Cc1cccc(C)c1 [Compound 140, N-(2-((5-amino-2-(1H-pyrazol-5-yl)thieno[3,2-b]pyridin-7-yl)amino)ethyl)-N-ethyl-2-(m-tolyl)acetamide] | > 30 | > 100 | – |
| CN(CCO)c1cc(N)nc2cc(-c3ccn[nH]3)sc12 [Compound 139, 2-((5-amino-2-(1H-pyrazol-5-yl)thieno[3,2-b]pyridin-7-yl)(methyl)amino)ethanol] | > 30 | > 100 | – |
| Nc1cc(NCCCN2CCCC2=O)c2sc(-c3ccn[nH]3)cc2n1 [Compound 150] | > 30 | > 100 | – |
| Cc1noc(C)c1CNc1cc(N)nc2cc(-c3ccn[nH]3)sc12 [Compound 149, N^7-((3,5-dimethylisoxazol-4-yl)methyl)-2-(1H-pyrazol-5-yl)thieno[3,2-b]pyridine-5,7-diamine] | > 30 | > 100 | – |
| Nc1cc(NCC(=O)NC2CC2)c2sc(-c3ccn[nH]3)cc2n1 [Compound 138, 2-((5-amino-2-(1H-pyrazol-5-yl)thieno[3,2-b]pyridin-7-yl)amino)-N-cyclopropylacetamide] | > 30 | > 100 | – |
| CN(CCCO)c1cc(N)nc2cc(-c3ccn[nH]3)sc12 [Compound 127, 3-((5-amino-2-(1H-pyrazol-5-yl)thieno[3,2-b]pyridin-7-yl)(methyl)amino)-1-propanol] | > 30 | > 100 | – |
| COCCNc1cc(N)nc2c(C)c(-c3cc[nH]n3)sc12 [Compound 152] | > 30 | > 100 | – |
| CC(C)C[C@H](CO)Nc1cc(N)nc2cc(-c3ccn[nH]3)sc12 [Compound 144, (R)-2-((5-amino-2-(1H-pyrazol-5-yl)thieno[3,2-b]pyridin-7-yl)amino)-4-methyl-1-pentanol] | > 30 | > 100 | – |
| CC(C)(O)CNc1cc(N)nc2cc(-c3ccn[nH]3)sc12 [Compound 28, (1-(5-amino-2-(1H-pyrazol-5-yl)thieno[3,2-b]pyridin-7-yl)amino)-2-methyl-2-propanol] | > 30 | > 100 | – |
| CNC(=O)CNc1cc(N)nc2cc(-c3ccn[nH]3)sc12 [Compound 137, 2-((5-amino-2-(1H-pyrazol-5-yl)thieno[3,2-b]pyridin-7-yl)amino)-N-methylacetamide] | > 30 | > 100 | – |
| Cc1c(-c2cc[nH]n2)sc2c(NCC(C)(C)CO)cc(N)nc12 [Compound 151] | > 30 | > 100 | – |
| Nc1cc(N[C@H]2CC[C@H](O)CC2)c2sc(-c3ccn[nH]3)cc2n1 [Compound 147, (1R,4R)-4-((5-amino-2-(1H-pyrazol-5-yl)thieno[3,2-b]pyridin-7-yl)amino)cyclohexanol] | > 30 | > 100 | – |
| C[C@]1(O)C[C@@H](Nc2cc(N)nc3cc(-c4ccn[nH]4)sc23)C1 [Compound 129, (1s,3s)-3-((5-amino-2-(1H-pyrazol-5-yl)thieno[3,2-b]pyridin-7-yl)amino)-1-methylcyclobutanol] | > 30 | > 100 | – |
| C[C@H](Nc1cc(N)nc2cc(-c3ccn[nH]3)sc12)c1cccc(C(F)(F)F)c1 [Compound 131, (S)-2-(1H-pyrazol-5-yl)-N^7-(1-(3-(trifluoromethyl)phenyl)ethyl)thieno[3,2-b]pyridine-5,7-diamine] | > 30 | > 100 | – |
